# According to PMC7594079, “Insights into the Function and Evolution of Taste 1 Receptor Gene Family in the Carnivore Fish Gilthead Seabream (Sparus aurata)” (International Journal of Molecular Sciences, 2020):
# Legend:
# saT1R2b/R3 = biological target: T1, saT1R2b/R3 (Sparus aurata, UniProt A0A671TG56+A0A671VZB3); experiment: saT1R2b/R3 heterodimer transiently transfected in stable pGL3-NFAT-luc-HEK293 (Cl.3) cells, luciferase reporter; type: cell-based; details: for T1R2b/R3 [MSD] maximum stimulation dose: as molarity, decimal comma
# T1 sequence (A0A671TG56 20-821): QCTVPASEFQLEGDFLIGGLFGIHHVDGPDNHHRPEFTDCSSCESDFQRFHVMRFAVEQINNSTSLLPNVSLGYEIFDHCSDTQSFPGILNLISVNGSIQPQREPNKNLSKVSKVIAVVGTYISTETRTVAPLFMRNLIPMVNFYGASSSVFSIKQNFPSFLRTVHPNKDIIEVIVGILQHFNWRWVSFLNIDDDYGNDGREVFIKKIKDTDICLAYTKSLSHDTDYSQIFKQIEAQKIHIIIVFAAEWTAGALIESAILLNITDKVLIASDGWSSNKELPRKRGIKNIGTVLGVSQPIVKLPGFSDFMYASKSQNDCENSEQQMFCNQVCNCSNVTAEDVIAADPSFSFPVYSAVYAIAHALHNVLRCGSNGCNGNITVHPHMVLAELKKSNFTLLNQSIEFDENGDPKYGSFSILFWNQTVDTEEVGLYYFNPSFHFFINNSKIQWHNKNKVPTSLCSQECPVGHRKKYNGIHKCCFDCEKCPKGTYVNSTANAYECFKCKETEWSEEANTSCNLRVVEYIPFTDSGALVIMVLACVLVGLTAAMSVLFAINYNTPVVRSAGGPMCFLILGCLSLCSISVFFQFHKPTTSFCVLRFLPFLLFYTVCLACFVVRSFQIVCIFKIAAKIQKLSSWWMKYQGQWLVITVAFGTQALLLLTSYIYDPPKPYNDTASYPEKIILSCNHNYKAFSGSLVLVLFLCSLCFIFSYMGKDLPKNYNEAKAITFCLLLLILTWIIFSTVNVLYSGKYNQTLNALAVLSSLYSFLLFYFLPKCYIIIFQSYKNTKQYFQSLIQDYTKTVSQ
# T1 sequence (A0A671VZB3 24-860): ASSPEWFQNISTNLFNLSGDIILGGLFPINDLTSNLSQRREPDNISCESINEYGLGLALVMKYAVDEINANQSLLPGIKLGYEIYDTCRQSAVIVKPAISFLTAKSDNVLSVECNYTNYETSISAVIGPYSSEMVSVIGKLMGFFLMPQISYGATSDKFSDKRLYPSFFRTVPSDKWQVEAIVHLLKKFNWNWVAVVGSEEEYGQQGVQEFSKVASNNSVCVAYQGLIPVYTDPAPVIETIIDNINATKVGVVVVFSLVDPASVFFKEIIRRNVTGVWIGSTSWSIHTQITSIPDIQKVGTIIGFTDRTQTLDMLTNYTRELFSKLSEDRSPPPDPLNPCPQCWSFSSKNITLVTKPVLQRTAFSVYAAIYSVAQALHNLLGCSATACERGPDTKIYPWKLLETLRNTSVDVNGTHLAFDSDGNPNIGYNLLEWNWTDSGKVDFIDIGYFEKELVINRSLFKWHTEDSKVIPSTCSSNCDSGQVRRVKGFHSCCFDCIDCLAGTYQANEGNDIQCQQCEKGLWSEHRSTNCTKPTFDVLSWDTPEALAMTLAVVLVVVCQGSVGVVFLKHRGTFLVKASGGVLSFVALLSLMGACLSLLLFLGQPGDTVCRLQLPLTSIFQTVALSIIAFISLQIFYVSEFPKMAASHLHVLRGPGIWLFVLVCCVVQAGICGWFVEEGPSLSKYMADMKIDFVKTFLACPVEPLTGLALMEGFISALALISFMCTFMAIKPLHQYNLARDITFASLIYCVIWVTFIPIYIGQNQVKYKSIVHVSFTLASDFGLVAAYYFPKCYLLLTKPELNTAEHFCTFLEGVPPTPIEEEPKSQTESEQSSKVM
# From the text: Figure 6 Amino acid Log-dose response curves of activation in heterologous co-transfected (Cl.3) cells with saT1R1/3 (green dots), saT1R2a/3 (red squares) and saT1R2b/3 (black triangles) heterodimers. Evaluation of L-AA responses was based on the RLU mean ± SEM of four independent determinations normalized to the mean response of the same transfections stimulated with reduced assay medium (Basal Medium Eagle w/o L-glutamate (BME) + 1% FBS), and expressed as the percentage relative to basal levels (BL).
# HEK293 cells were cultured in standard medium DMEM (Gibco, Thermo Fisher, Saint Louis, MO, USA) containing 10% FBS, penicillin (100 U/mL) and streptomycin ([…]) at 37 °C, with a humidified atmosphere at 5% CO2. pGL3-NFAT-luc-HEK293 stable clones were generated by co-transfections of pGL3-NFAT-luc and tgCMV/HyTK plasmids (50:1), the latter harboring the hygromycin phosphotransferase gene, using Lipofectamine LTX according to supplier’s protocols (Thermo Fisher, Saint Louis, MO, USA). Initially, HEK293 cells were selected using DMEM containing 400 μg/mL hygromycin B (Sigma, Darmstadt, Germany) in 24-well plates for two weeks; 24 colonies were further grown out in 96-well plates under reduced hygromycin selection (200 µg/mL) for three weeks. Potentially resistant NFAT-luc-HEK293 clones (n = 22) were validated after incubation in assay medium (DMEM + 1% FBS) containing PMA or Ionomycin (Sigma, Darmstadt, Germany) for 18 h (triplicates, 50,000 cells/well). Luciferase activity was quantified with ONE-Glo™ EX Reagent Kit (Promega, Madison, WI, USA) using a 96-microplate TECAN reader (Trading AG, Switzerland).
# saT1Rs (saT1R1, saT1R2a, saT1R2b saT1R3) and saGαi1-2 genes were RT-PCR amplified using 5’ and 3’ flanking primers carrying HindIII and XhoI restriction sites, respectively. Gel-purified fragments were cloned into pGEM-T Easy vectors, re-sequenced, digested and subcloned into pcDNA™3 (Invitrogen, Carlsbad, CA, USA). Effective saT1R cloning into pcDNA™3 was further verified by HindIII/XhoI digestion. Transient co-transfections were done in 6-well plates (confluence ~70–80%) using 100 μL of reduced serum medium (Opti-MEM, Gibco, Thermo Fisher, Saint Louis, MO, USA) containing 150 ng of each selected pcDNA™3 construct, 1:10 charge ratio of Enhanced Green Fluorescent expressing construct (EGFP; positive control), and pBluescript II SK (+) vector DNA (Addgene, Watertown, MA, USA) up to 1 µg of totally transfected DNA. Following 24 h incubation, cells were washed with fresh standard medium and plated in polylysine treated plates for additional 24 h. Cells were then stimulated with L-AAs and sugar compounds for 18 h in a reduced assay medium (BME w/o L-glutamate; Gibco, Thermo Fisher, Saint Louis, MO, USA) + 1% FBS), to prevent unspecific Ca^2+/NFAT signaling activation and potential saT1R desensitization. All L-AAs and sugars used for in vitro experiments were obtained from Merck KGaA (Darmstadt, Germany).
# [1] = tested on: pGL3-NFAT-luc-HEK293 (Cl.3) cells; type: cell-based
# From the text: BL (Basal Levels) = 100% RLU. Different lowercase letters (a,b,c) on top of bars indicate significant differences (p < 0.05) between concentrations, assessed by one-way ANOVA followed by Tukey’s Multiple Comparison Test (GraphPad Prism version 5.00).
SMILES,T1R2b/R3 [MSD] maximum stimulation dose (saT1R2b/R3),other results
"C[C@H](N)C(=O)O [Ala, Alanine]","1,00 × 10^-1 M",
"N=C(N)NCCC[C@H](N)C(=O)O [Arg, Arginine]","1,00 × 10^-5 M",
"NC(=O)C[C@H](N)C(=O)O [Asn, Asparagine]","1,00 × 10^-1 M",
"N[C@@H](CC(=O)O)C(=O)O [Asp, Aspartic acid]","1,00 × 10^-5 M",
"N[C@@H](CS)C(=O)O [Cys, Cysteine]","1,00 × 10^-4 M",
OC[C@H]1OC(O)[C@H](O)[C@@H](O)[C@@H]1O (stereo partly drawn) [D-Glucose],,"concentration with significant activation (saT1R2b/R3; saT1R2b/R3, tested 1–500 mM): 200 mM; doses toxic for the cells and/or inhibiting their stimulation [1]: 300 to 500 mM"
"NC(=O)CC[C@H](N)C(=O)O [Gln, Glutamine]","1,00 × 10^-1 M",
"N[C@@H](CCC(=O)O)C(=O)O [Glu, Glutamic acid]","1,00 × 10^-2 M",
"NCC(=O)O [Gly, Glycine]","1,00 × 10^-1 M",
"N[C@@H](Cc1c[nH]cn1)C(=O)O [His, Histidine]","1,00 × 10^-5 M",
"CC[C@H](C)[C@H](N)C(=O)O [Ile, Isoleucine]","1,00 × 10^-1 M",
"CC(C)C[C@H](N)C(=O)O [Leu, Leucine]","1,00 × 10^-1 M",
"NCCCC[C@H](N)C(=O)O [Lys, Lysine]","1,00 × 10^-3 M",
"CSCC[C@H](N)C(=O)O [Met, Methionine]","1,00 × 10^-1 M",
"N[C@@H](Cc1ccccc1)C(=O)O [Phe, Phenylalanine]","1,00 × 10^-2 M",
"O=C(O)[C@@H]1CCCN1 [Pro, Proline]","1,00 × 10^-1 M",
"N[C@@H](CO)C(=O)O [Ser, Serine]","1,00 × 10^-1 M",
"C[C@@H](O)[C@H](N)C(=O)O [Thr, Threonine]","1,00 × 10^-1 M",
"N[C@@H](Cc1c[nH]c2ccccc12)C(=O)O [Trp, Tryptophan]","1,00 × 10^-3 M",
"N[C@@H](Cc1ccc(O)cc1)C(=O)O [Tyr, Tyrosine]","1,00 × 10^-3 M",
"CC(C)[C@H](N)C(=O)O [Val, Valine]","1,00 × 10^-1 M",
